Patent publication US8754209B2, “Indazole derivatives or pharmaceutically acceptable salts thereof as protein kinase inhibitors for proliferative diseases treatment, and a pharmaceutical composition containing the same as an active ingredient” (Korea Institute of Science and Technology, priority 2009, dated 2014)
Values belong to the compound of their own block, whether it stands above or below them.

What was measured:
B-Raf-V600E = B-Raf-V600E (Homo sapiens, UniProt P15056, V600E); assay: B-Raf kinase enzyme assay (MEK1/Erk2 cascade, MBP phosphorylation, 32P); format: biochemical; conditions: read-out: b-raf-V600Ekinase inhibitory activity (IC50)
Protocol: <1-1> Activation of MAP Kinase 2/Erk2 by B-raf
10 μl magnesium chloride/ATP solution (500 uM ATP, 75 mM magnesium chloride) was seeded in eppendorf tube. 2.5 μl B-Raf-V600E was seed (final conc. 1 ng) in eppendorf tube and treated with 1.6 μl deactivated MEK1 (final conc. 0.4 μg). The mixture was treated with 4 μl deactivated MAP kinase 2/Erk2 (final conc. 1.0 ug). And the mixture was treated with 1 μl example solution (10 mM) dissolved in dimethyl sulfoxide which was orderly diluted. Then, assay dilution buffer I (ADBI I) was added thereto (final vol. 38 μl) to make the final volume of 38 μl, and made it reacted at 30° C. for 30 min. 5 μl of resulting solution was used for the following experiment.
<1-2> Phosphorylation of Myelin basic protein (MBP)
5 μl of the above resulting solution was treated with 10 μl assay dilution buffer, and then treated with 10 μl Myelin basic protein (MBP, 2 mg/Ml). The mixture solution was treated with 10 μl of diluted (1/10) [γ^32P] ATP (100 uCi/vial) which is diluted at 30° C. for 10 min. 25 μl of the mixture solution was spotted onto a P81 paper, and the paper was washed four times with 0.75% phosphoric acid for 10 min and once with acetone for 5 min in scintillation vial. After 5 Ml of scintillation cocktail solution was added in the scintillation vial, signals were analyzed by scintillation counter.

A375P cells = assay: Anti-proliferative activity on A375P cell line (MTT assay); format: cell-based; conditions: A375P human melanoma cell line
Protocol: A375P cells were purchased from American Type Culture Collection (ATCC, Rockville, Md., US) and maintained in DMEM medium (Welgene, Daegu, Korea) supplemented with 10% FBS (Welgene) and 1% penicillin/streptomycin (Welgene) in a humidified atmosphere with 5% CO2 at 37° C. The A375P cells were taken from culture substrate with 0.05% trypsin-0.02% EDTA and plated at a density of 5×10^3 cells/well in 96 well plates and then incubated at 37° C. for 24 h in a humidified atmosphere with 5% CO2 prior to treatment of various concentration (three fold serial dilution, 12 points) of test compounds. The A357P cell viability was assessed by the conventional 3-(4,5-dimethylthiazol-2-yl)-2,5-diphenyltetrazolium bromide (MTT) reduction assay. MTT assays were carried out with CellTiter 96 (Promega) according to the manufacturer's instructions.
After 1 day, 0.5 μl the representative compounds of the examples were added thereto. The representative compounds of the examples were prepared by three fold serial dilution of 10 mM stock solution in DMSO, 12 point (final conc. DMSO 0.5%). Then, 15 μl dye was added in each well. After 2 h, 100 μl stop solution was added each well. After 24 h, absorbance was measured. The absorbance at 590 nm was recorded using EnVision2103 (PerkinElmer; Boston, Mass., US). The IC50 value was calculated using GraphPad Prism 4.0 software.

Ret (h) = Ret (h) (Homo sapiens, UniProt P07949); assay: Kinase activity profiling service (Millipore); format: biochemical; conditions: read-out: Kinase inhibitory activity (IC50, uM) Ret (h)
Source text: (§1) Also, as mentioned above we tested kinase activities of the representative compounds of the examples using Kinase activity profiling service (Millipore UK Ltd Gemini Crescent, Dundee Technology Park, Dundee DD2 1SW, UK).

c-RAF (h) = c-RAF (h) (Homo sapiens, UniProt P04049); assay: Kinase activity profiling service (Millipore); format: biochemical; conditions: read-out: Kinase inhibitory activity (IC50, uM) c-RAF (h)
Source text: as §1

SAPK2a (h) = SAPK2a (h) (Homo sapiens, UniProt Q16539); assay: Kinase activity profiling service (Millipore); format: biochemical; conditions: read-out: Kinase inhibitory activity (IC50, uM) SAPK2a (h)
Source text: as §1

Tie2 (h) = Tie2 (h) (Homo sapiens, UniProt Q02763); assay: Kinase activity profiling service (Millipore); format: biochemical; conditions: read-out: Kinase inhibitory activity (IC50, uM) Tie2 (h)
Source text: as §1

KDR (h) = KDR (h) (Homo sapiens, UniProt P35968); assay: Kinase activity profiling service (Millipore); format: biochemical; conditions: read-out: Kinase inhibitory activity (IC50, uM) KDR (h)
Source text: as §1

Fms (h) = Fms (h) (Homo sapiens, UniProt P07333); assay: Kinase activity profiling service (Millipore); format: biochemical; conditions: read-out: Kinase inhibitory activity (IC50, uM) Fms (h)
Source text: as §1

T3151-Bcr-Abl = conditions: cited from earlier work
A375 melanoma cell line = conditions: raf-V660E overexpression cell strain; read-out: anti-proliferative activity IC50, A375 melanoma cell line; cited from earlier work
[1] = cited from earlier work

Chain of B-Raf-V600E (P15056 whole entry V600E): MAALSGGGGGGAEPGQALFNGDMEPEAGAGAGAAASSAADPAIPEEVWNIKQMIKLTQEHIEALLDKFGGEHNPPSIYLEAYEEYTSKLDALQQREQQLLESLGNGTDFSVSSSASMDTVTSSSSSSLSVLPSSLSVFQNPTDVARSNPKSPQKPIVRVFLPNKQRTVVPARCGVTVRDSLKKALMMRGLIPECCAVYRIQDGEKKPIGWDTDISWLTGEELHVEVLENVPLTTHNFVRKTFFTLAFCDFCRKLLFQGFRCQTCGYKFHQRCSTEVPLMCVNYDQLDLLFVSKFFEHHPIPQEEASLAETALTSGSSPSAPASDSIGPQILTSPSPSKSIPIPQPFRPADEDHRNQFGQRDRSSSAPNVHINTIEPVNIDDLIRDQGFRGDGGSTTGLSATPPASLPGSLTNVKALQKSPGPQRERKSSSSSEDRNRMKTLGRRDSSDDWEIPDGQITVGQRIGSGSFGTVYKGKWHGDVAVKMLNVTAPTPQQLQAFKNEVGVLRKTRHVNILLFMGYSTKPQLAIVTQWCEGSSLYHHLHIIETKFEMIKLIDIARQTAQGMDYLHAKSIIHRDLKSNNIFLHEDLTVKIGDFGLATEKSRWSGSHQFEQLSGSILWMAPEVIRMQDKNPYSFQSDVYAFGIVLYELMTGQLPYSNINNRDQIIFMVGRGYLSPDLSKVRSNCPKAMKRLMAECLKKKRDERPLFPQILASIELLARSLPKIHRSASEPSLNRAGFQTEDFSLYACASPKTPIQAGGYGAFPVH
Chain of Ret (h) (P07949 29-1114): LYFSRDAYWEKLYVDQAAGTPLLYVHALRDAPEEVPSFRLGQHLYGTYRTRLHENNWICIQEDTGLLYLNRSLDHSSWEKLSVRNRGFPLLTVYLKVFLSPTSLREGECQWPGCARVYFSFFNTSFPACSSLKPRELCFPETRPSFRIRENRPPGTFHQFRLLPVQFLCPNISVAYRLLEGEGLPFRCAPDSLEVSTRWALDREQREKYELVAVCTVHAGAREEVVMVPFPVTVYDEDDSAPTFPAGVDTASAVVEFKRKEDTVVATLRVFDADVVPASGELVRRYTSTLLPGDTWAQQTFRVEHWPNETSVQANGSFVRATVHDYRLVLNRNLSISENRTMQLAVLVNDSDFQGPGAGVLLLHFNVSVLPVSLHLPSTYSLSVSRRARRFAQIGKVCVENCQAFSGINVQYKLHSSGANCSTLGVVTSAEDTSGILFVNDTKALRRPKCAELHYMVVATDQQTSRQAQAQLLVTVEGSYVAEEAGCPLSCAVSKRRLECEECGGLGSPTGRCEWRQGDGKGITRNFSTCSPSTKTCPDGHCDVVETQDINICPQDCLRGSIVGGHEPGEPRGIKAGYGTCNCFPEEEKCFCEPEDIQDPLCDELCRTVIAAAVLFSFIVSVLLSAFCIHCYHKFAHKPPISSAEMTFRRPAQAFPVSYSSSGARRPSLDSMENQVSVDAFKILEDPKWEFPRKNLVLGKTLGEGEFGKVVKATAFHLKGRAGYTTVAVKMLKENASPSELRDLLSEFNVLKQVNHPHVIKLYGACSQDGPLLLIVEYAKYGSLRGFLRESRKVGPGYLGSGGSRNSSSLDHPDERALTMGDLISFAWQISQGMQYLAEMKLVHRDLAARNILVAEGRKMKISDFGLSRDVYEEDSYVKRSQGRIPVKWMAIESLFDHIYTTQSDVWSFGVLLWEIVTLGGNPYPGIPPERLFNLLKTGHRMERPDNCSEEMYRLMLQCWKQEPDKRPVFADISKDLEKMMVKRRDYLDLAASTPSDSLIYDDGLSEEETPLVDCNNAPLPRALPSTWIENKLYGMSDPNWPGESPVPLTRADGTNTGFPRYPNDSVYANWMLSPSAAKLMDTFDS
Chain of SAPK2a (h) (Q16539 whole entry): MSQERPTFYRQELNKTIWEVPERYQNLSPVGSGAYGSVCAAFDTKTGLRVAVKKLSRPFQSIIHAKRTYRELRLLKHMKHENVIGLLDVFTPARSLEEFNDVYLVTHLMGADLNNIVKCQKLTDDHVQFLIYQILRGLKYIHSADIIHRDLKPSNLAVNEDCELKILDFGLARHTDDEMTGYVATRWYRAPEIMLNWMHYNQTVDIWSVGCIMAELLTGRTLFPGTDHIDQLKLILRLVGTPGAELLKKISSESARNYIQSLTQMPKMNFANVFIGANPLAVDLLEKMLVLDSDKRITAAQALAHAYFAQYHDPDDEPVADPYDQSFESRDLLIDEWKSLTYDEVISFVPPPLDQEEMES
Chain of Tie2 (h) (Q02763 23-1124): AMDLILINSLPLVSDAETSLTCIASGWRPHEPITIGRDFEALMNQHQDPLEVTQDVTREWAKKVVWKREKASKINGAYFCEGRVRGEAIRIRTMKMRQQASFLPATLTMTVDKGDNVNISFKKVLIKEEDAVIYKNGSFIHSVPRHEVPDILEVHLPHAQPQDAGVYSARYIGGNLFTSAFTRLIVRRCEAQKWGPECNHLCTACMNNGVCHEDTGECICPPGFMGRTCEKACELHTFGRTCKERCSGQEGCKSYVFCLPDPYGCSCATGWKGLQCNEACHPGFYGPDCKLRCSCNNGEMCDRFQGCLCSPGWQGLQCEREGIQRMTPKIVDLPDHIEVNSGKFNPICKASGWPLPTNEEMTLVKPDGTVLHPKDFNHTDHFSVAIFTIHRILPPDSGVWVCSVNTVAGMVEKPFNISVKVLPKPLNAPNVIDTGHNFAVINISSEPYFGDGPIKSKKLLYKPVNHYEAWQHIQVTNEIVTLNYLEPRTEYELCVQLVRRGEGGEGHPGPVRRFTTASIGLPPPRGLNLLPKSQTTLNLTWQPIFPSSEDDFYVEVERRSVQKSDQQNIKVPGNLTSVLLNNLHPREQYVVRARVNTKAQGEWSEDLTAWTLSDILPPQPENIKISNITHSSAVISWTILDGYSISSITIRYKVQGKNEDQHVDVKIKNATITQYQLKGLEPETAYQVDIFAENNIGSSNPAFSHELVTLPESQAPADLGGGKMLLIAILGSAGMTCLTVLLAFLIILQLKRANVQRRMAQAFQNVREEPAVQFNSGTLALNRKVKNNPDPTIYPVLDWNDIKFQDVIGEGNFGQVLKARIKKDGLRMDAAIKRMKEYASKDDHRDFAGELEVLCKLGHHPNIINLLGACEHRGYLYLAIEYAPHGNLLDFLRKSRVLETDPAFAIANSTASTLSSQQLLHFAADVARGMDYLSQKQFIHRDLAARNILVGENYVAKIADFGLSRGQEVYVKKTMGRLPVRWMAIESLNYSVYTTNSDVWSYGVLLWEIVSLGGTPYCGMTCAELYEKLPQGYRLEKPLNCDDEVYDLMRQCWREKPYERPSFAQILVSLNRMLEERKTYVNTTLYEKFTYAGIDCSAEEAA
Chain of KDR (h) (P35968 20-1356): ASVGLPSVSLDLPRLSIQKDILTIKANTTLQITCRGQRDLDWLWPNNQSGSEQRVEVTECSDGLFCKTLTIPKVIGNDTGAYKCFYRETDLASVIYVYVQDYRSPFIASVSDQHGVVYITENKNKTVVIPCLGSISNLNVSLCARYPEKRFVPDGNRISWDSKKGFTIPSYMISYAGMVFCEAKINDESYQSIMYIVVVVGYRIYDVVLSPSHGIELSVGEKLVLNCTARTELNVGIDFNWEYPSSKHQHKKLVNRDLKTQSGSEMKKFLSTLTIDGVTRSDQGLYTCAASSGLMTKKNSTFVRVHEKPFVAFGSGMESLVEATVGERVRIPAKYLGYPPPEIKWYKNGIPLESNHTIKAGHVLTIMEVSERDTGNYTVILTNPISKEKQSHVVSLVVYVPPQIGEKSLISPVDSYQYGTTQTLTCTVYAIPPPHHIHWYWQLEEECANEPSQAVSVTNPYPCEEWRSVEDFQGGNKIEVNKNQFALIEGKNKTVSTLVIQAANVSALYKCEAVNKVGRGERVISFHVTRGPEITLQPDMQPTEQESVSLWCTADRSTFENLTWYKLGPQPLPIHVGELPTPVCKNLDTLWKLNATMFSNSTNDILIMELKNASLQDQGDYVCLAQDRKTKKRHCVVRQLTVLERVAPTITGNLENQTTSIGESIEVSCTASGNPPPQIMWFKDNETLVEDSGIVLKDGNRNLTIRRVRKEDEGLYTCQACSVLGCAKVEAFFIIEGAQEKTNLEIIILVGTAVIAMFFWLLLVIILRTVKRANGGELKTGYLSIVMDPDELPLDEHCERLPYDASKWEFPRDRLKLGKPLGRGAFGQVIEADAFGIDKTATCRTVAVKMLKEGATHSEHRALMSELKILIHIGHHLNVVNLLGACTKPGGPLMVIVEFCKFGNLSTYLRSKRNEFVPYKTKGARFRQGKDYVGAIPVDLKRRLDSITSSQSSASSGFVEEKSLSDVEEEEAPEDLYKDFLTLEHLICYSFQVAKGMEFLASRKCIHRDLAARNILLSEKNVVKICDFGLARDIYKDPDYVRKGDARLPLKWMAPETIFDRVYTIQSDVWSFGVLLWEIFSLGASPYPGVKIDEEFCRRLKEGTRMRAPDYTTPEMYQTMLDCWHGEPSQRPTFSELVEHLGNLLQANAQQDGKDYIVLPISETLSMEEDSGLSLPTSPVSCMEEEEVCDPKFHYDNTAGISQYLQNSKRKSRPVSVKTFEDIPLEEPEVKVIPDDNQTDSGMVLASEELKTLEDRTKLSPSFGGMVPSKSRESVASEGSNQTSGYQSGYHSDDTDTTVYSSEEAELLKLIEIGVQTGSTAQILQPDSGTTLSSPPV

IC50 (B-Raf-V600E): < 10 µM
GI50 (A375P cells): < 10 µM
Structure (SMILES): CCOC(=O)c1n[nH]c2cc(-c3cc(NC(=O)Nc4ccc(Cl)c(C(F)(F)F)c4)ccc3C)ccc12 [Example 57, ethyl 6-(5-(3-(4-chloro-3-(trifluoromethyl)phenyl)ureido)-2-methylphenyl)-1H-indazole-3-carboxylate]

IC50 (B-Raf-V600E): < 10 µM
GI50 (A375P cells): < 10 µM
Structure (SMILES): O=C(Nc1cccc(-c2ccc3c(C(=O)NCCN4CCOCC4)n[nH]c3c2)c1)Nc1ccc(Cl)c(C(F)(F)F)c1 [Example 58, 6-(3-(3-(4-chloro-3-(trifluoromethyl)phenyl)ureido)phenyl)-N-(2-morpholinoethyl)-1H-indazole-3-carboxamide]

IC50 (Ret (h)): 603 µM
IC50 (c-RAF (h)): 137 µM
IC50 (SAPK2a (h)): 167 µM
IC50 (Tie2 (h)): 1510 µM
IC50 (KDR (h)): 332 µM
IC50 (Fms (h)): 141 µM
IC50 (B-Raf-V600E): < 10 µM
GI50 (A375P cells): < 10 µM
Structure (SMILES): Cc1ccc(NC(=O)Nc2ccc(Cl)c(C(F)(F)F)c2)cc1-c1ccc2c(C(=O)NCCN3CCOCC3)n[nH]c2c1 [Example 64, 6-(5-(3-(4-chloro-3-(trifluoromethyl)phenyl)ureido)-2-methylphenyl)-N-(2-morpholinoethyl)-1H-indazole-3-carboxamide]

IC50 (B-Raf-V600E): < 10 µM
GI50 (A375P cells): < 10 µM
Structure (SMILES): O=C(Nc1cccc(-c2ccc3c(CO)n[nH]c3c2)c1)Nc1ccc(Cl)c(C(F)(F)F)c1 [Example 79, 1-(4-chloro-3-(trifluoromethyl)phenyl)-3-(3-(3-(hydroxymethyl)-1H-indazol-6-yl)phenyl)urea]

Structure (SMILES): Cc1cn(-c2cc(NC(=O)c3ccc(C)c(Nc4nccc(-c5cccnc5)n4)c3)cc(C(F)(F)F)c2)cn1 [Nilotinib]
activity on T3151-Bcr-Abl (T3151-Bcr-Abl): inactive

Structure (SMILES): CCCS(=O)(=O)Nc1ccc(F)c(C(=O)c2c[nH]c3ncc(Cl)cc23)c1F [PLX-4720]
IC50 (A375 melanoma cell line): 0.5 µM

Structure (SMILES): CNC(=O)c1cc(Oc2ccc(NC(=O)Nc3ccc(Cl)c(C(F)(F)F)c3)cc2)ccn1 [Sorafenib]
skin toxicity side effect, grade ([1]; 600 mg twice a day): 3
MTD (maximum tolerated dose) ([1]; twice a day, phase II clinical investigation): 400 mg
